Laboratory results published in patent publication EP3521435A1, “A HIGH STRINGENCY SELECTION SYSTEM FOR PROTEIN EXPRESSION IN PROLINE-AUXOTROPHIC CELLS” (Bayer AG, priority 2018, dated 2019).

Legend:
CHO-K1 cells [1] = assay: Batch fermentation in shake flasks of human IgG1 expressing stable cell populations (Poros A-HPLC titer, viable cell density, viability); type: cell-based, Chinese hamster; conditions: pJF1576; for Productivity profile: human IgG1
CHO-K1 cells [2] = assay: Cell viability post-transfection of transfected cell populations under selection conditions; type: cell-based, Chinese hamster; conditions: for recovery of cultures: 0.8 mM DHP; for Viability on day 15 post-transfection: pJF2460
Summary of the method: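 Suspension CHO-K1 nucleofected (1e7 cells, 5 µg linearized DNA) with GFP vectors carrying puromycin marker plus SV40-driven murine P5CS; seeded 2e5 viable cells/ml, selected with 10 µg/ml puromycin or in proline/ornithine-free medium ± added pressure, viability tracked over time. GFP read by flow cytometry (yellow channel, PI-excluded dead cells): MFI and % high fluorescers above set threshold.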

[3] = Day 7 after inoculation, selected in CD-Fusion w/o Pro + 0.1 mM DHP, non-selecting conditions
[4] = Day 7 after inoculation, selected in CD-Fusion w/o Pro + 0.1 mM DHP, selective conditions
[5] = Day 7 after inoculation, selected in CD-Fusion w/o Pro + 0.2 mM DHP, non-selecting conditions
[6] = Day 7 after inoculation, selected in CD-Fusion w/o Pro + 0.2 mM DHP, selective conditions
[7] = Day 7 after inoculation, selected in CD-Fusion w/o Pro + 0.4 mM DHP, non-selecting conditions
[8] = Day 7 after inoculation, selected in CD-Fusion w/o Pro + 0.4 mM DHP, selective conditions
[9] = Day 9 after inoculation, selected in CD-Fusion w/o Pro + 0.05 mM DHP, non-selecting conditions
[10] = Day 9 after inoculation, selected in CD-Fusion w/o Pro + 0.1 mM DHP, non-selecting conditions
[11] = Day 9 after inoculation, selected in CD-Fusion w/o Pro + 0.2 mM DHP, non-selecting conditions
[12] = Day 9 after inoculation, selected in CD-Fusion w/o Pro + 0.4 mM DHP, non-selecting conditions
[13] = pJF1555, CD-Fusion w/o Pro + 0.2 mM DHP
[14] = pJF1576, CD-Fusion w/o Pro + 0.2 mM DHP
[15] = pJF1576, CD-Fusion w/o Pro + 0.4 mM DHP

O=C(O)[C@@H]1C=CCN1 [DHP, 3,4-Dehydro-L-Proline]
Viability profile (CHO-K1 cells [1]; [3]): 95.6%
Viable cell density profile (CHO-K1 cells [1]; [3]): 7,9E+06 VCD/ml
Viability profile (CHO-K1 cells [1]; [4]): 32.2%
Viable cell density profile (CHO-K1 cells [1]; [4]): 4.0E+06 VCD/ml
Viability profile (CHO-K1 cells [1]; [5]): 97.4%
Viable cell density profile (CHO-K1 cells [1]; [5]): 9,6E+06 VCD/ml
Viability profile (CHO-K1 cells [1]; [6]): 93.2%
Viable cell density profile (CHO-K1 cells [1]; [6]): 9.1E+06 VCD/ml
Viability profile (CHO-K1 cells [1]; [7]): 98.1%
Viable cell density profile (CHO-K1 cells [1]; [7]): 1,1E+07 VCD/ml
Viability profile (CHO-K1 cells [1]; [8]): 56.1%
Viable cell density profile (CHO-K1 cells [1]; [8]): 6.9E+06 VCD/ml
Productivity profile (CHO-K1 cells [1]; [9]): 115.5 mg/L
Productivity profile (CHO-K1 cells [1]; [10]): 127.1 mg/L
Productivity profile (CHO-K1 cells [1]; [11]): 153.7 mg/L
Productivity profile (CHO-K1 cells [1]; [12]): 164.7 mg/L
Viability profile (CHO-K1 cells [1]; [9]): 19.5%
Viable cell density profile (CHO-K1 cells [1]; [9]): 2,5E+06 VCD/ml
Viability profile (CHO-K1 cells [1]; [10]): 5.1%
Viable cell density profile (CHO-K1 cells [1]; [10]): 6,4E+05 VCD/ml
Viability profile (CHO-K1 cells [1]; [11]): 18.7%
Viable cell density profile (CHO-K1 cells [1]; [11]): 2,2E+06 VCD/ml
Viability profile (CHO-K1 cells [1]; [12]): 21.7%
Viable cell density profile (CHO-K1 cells [1]; [12]): 3,1E+06 VCD/ml
recovery of cultures (CHO-K1 cells [2]; pJF1555, even after prolonged incubations): did not recover
recovery of cultures (CHO-K1 cells [2]; pJF1576): did not recover
Viability on day 12 post-transfection (CHO-K1 cells [2]; pJF1555, CD-Fusion w/o Pro + 0.05 mM DHP): 83%
Viability on day 12 post-transfection (CHO-K1 cells [2]; pJF1555, CD-Fusion w/o Pro + 0.1 mM DHP): 53%
Viability on day 12 post-transfection (CHO-K1 cells [2]; [13]): 40%
Viability on day 19 post-transfection (CHO-K1 cells [2]; [13]): 27%
Viability on day 12 post-transfection (CHO-K1 cells [2]; pJF1555, CD-Fusion w/o Pro + 0.4 mM DHP): 20%
Viability on day 12 post-transfection (CHO-K1 cells [2]; pJF1555, CD-Fusion w/o Pro + 0.8 mM DHP): 13%
Viability on day 19 post-transfection (CHO-K1 cells [2]; pJF1555, CD-Fusion w/o Pro + 1 mM DHP): 7%
Viability on day 19 post-transfection (CHO-K1 cells [2]; pJF1555, CD-Fusion w/o Pro + 5 mM DHP): 6%
Viability on day 19 post-transfection (CHO-K1 cells [2]; pJF1555, CD-Fusion w/o Pro + 10 mM DHP): 7%
DHP concentration at which cultures did not recover (CHO-K1 cells [2]; pJF1555, proline-free medium, even after extension of cultivation): ≥ 1 mM
Viability on day 12 post-transfection (CHO-K1 cells [2]; pJF1576, CD-Fusion w/o Pro + 0.05 mM DHP): 91%
Viability on day 12 post-transfection (CHO-K1 cells [2]; pJF1576, CD-Fusion w/o Pro + 0.1 mM DHP): 74%
Viability on day 12 post-transfection (CHO-K1 cells [2]; [14]): 49%
Viability on day 21 post-transfection (CHO-K1 cells [2]; [14]): 87.4%
Viability on day 12 post-transfection (CHO-K1 cells [2]; [15]): 28%
Viability on day 21 post-transfection (CHO-K1 cells [2]; [15]): 65.3%
Viability on day 21 post-transfection (CHO-K1 cells [2]; pJF1576, CD-Fusion w/o Pro + 0.5 mM DHP): 42.8%
Viability on day 21 post-transfection (CHO-K1 cells [2]; pJF1576, CD-Fusion w/o Pro + 0.6 mM DHP): 35.7%
Viability on day 12 post-transfection (CHO-K1 cells [2]; pJF1576, CD-Fusion w/o Pro + 0.8 mM DHP): 23%
Viability on day 21 post-transfection (CHO-K1 cells [2]; pJF1969, CD-Fusion w/o Pro + 0.2 mM DHP): 26.5%
Viability on day 21 post-transfection (CHO-K1 cells [2]; pJF1969, CD-Fusion w/o Pro + 0.4 mM DHP): 22.9%
Viability on day 21 post-transfection (CHO-K1 cells [2]; pJF1969, CD-Fusion w/o Pro + 0.5 mM DHP): 23.3%
Viability on day 21 post-transfection (CHO-K1 cells [2]; pJF1969, CD-Fusion w/o Pro + 0.6 mM DHP): 25.9%
Viability on day 21 post-transfection (CHO-K1 cells [2]; pJF1970, CD-Fusion w/o Pro + 0.2 mM DHP): 18.2%
Viability on day 21 post-transfection (CHO-K1 cells [2]; pJF1970, CD-Fusion w/o Pro + 0.4 mM DHP): 21.4%
Viability on day 21 post-transfection (CHO-K1 cells [2]; pJF1970, CD-Fusion w/o Pro + 0.5 mM DHP): 18.3%
Viability on day 21 post-transfection (CHO-K1 cells [2]; pJF1970, CD-Fusion w/o Pro + 0.6 mM DHP): 18.2%
Viability on day 22 post-transfection (CHO-K1 cells [2]; pJF2055, CD-Fusion w/o Pro + 0.02 mM DHP): 99.5%
Viability on day 22 post-transfection (CHO-K1 cells [2]; pJF2055, CD-Fusion w/o Pro + 0.03 mM DHP): 99.2%
Viability on day 22 post-transfection (CHO-K1 cells [2]; pJF2055, CD-Fusion w/o Pro + 0.04 mM DHP): 99.2%
Viability on day 22 post-transfection (CHO-K1 cells [2]; pJF2055, CD-Fusion w/o Pro + 0.06 mM DHP): 83.3%
Viability on day 22 post-transfection (CHO-K1 cells [2]; pJF2055, CD-Fusion w/o Pro + 0.07 mM DHP): 65.3%
Viability on day 22 post-transfection (CHO-K1 cells [2]; pJF2055, CD-Fusion w/o Pro + 0.08 mM DHP): 36.3%
Viability on day 22 post-transfection (CHO-K1 cells [2]; pJF2303, CD-Fusion w/o Pro + 0.02 mM DHP): 99.3%
Viability on day 22 post-transfection (CHO-K1 cells [2]; pJF2303, CD-Fusion w/o Pro + 0.04 mM DHP): 99.6%
Viability on day 22 post-transfection (CHO-K1 cells [2]; pJF2303, CD-Fusion w/o Pro + 0.06 mM DHP): 99.4%
Viability on day 22 post-transfection (CHO-K1 cells [2]; pJF2303, CD-Fusion w/o Pro + 0.08 mM DHP): 99.2%
Viability on day 22 post-transfection (CHO-K1 cells [2]; pJF2303, CD-Fusion w/o Pro + 0.2 mM DHP): 98.4%
Viability on day 22 post-transfection (CHO-K1 cells [2]; pJF2303, CD-Fusion w/o Pro + 0.3 mM DHP): 98.2%
Viability on day 22 post-transfection (CHO-K1 cells [2]; pJF2303, CD-Fusion w/o Pro + 0.4 mM DHP): 98.5%
Viability on day 22 post-transfection (CHO-K1 cells [2]; pJF2303, CD-Fusion w/o Pro + 0.5 mM DHP): 99.1%
Viability on day 15 post-transfection (CHO-K1 cells [2]; CD-Fusion w/o Pro + 0.01 mM DHP): 73.2%
Viability on day 15 post-transfection (CHO-K1 cells [2]; CD-Fusion w/o Pro + 0.03 mM DHP): 44.1%
Viability on day 15 post-transfection (CHO-K1 cells [2]; CD-Fusion w/o Pro + 0.04 mM DHP): 30.6%
Viability on day 15 post-transfection (CHO-K1 cells [2]; CD-Fusion w/o Pro + 0.05 mM DHP): 22.8%
